# Measured values from patent publication US10272056B2, “Treatment for mitochondrial diseases” (The George Washington University a Congressionally …, priority 2015, dated 2019).
# Tested on: Tfam
# Experiment: Quantitative immunoblot analysis of Tfam
# Type: cell-based
# Conditions: NaBt treatment, PC12-ND6
# Description: FIG. 11A-11D are images from microscopy and graphs showing NaBt promotes mtDNA replication via the NRF-1/Tfam axis. (A) Confocal analysis of mtDNA foci; scale bar=5 (B) Quantitative analysis of mtDNA copy number by PCR; *p<0.001. (C, D) Quantitative immunoblot analysis of NRF-1 and Tfam; *p<0.001.
# NaBt enhances mtDNA replication via the PGC1α-mediated NRF-1/Tfam axis. It was investigated whether NaBt enhanced mtDNA replication using the PicoGreen® dye to label mtDNA. PC12-ND6 cells were transfected with the mito-dsRed vector prior to NaBt treatment followed by PicoGreen® staining. […] To corroborate enhanced mitochondrial biogenesis, two key target genes of PGC1α were examined, the NRF-1 transcription factor and its direct target gene Tfam, both essential for mitochondrial biogenesis. […] The findings confirm the NaBt-mediated modulation of mitochondrial biogenesis and mtDNA replication in neuronal cells.
smiles,measurement,value
"CCCC(=O)[O-].[Na+] [NaBt, sodium butyrate]",Tfam expression,induced Tfam expression on day 2
